Experiments:
human lymphocytes = experiment: Immunosuppressive potency: inhibition of proliferation of anti-CD3 stimulated human lymphocytes (CFSE, flow cytometry); assay type: cell-based; conditions: relative potency: IC50 for inhibition of cell division normalized to CsA, 3 days incubation
Experimental: The immunosuppressive potency of test compounds was assessed by measuring their ability to inhibit the proliferation of human lymphocytes in cell culture. Lymphocytes were isolated from blood of normal human volunteers by Ficoll-gradient centrifugation and stained with 2 μg/ml carboxyfluoroscein diacetate succinimydyl ester (CFSE), a fluorescent cell division tracer molecule. Cells were stimulated through the CD3/T-cell receptor by seeding cells at 300,000/well into 96-well flat-bottom, high-binding plates coated with 1 μg/ml UCHT-1 anti-human CD3 antibody. Test compounds were prepared first as 10 mg/ml stock solutions in dimethylsulfoxide (DMSO). Test solutions were prepared by 500-fold dilution of the DMSO stock solutions, then 3-fold serial dilutions in cell culture medium (RPMI+5% FBS+penicillin-steptomycin) for a total of 7 concentrations per compound. Test solutions were added in equal volume to the culture wells containing cells to achieve final concentrations after dilution of 13.7 ng/ml-10,000 ng/ml. […] Following 3 days incubation cells were stained with CD95-APC (lymphocyte activation marker) and analyzed by flow cytometry with a Becton Dickinson FACSCalibur. Percentage cell division was assessed in forward/side-scatter-gated lymphocytes by measuring the proportion of cells that underwent one or more cell divisions as determined by serial halving of CFSE intensity. The nondivided parent population was determined from samples maintained in culture without anti-CD3 stimulation. IC50 values for inhibition of cell division were determined by nonlinear regression analysis. […]

CyP-D = target: T1, CyP-D (Rattus norvegicus, UniProt P29117); assay type: biochemical; conditions: mitochondria isolated from rat liver, 190 μM calcium, swelling as decline in A540
T1 construct: Mitochondria were isolated from fresh rat liver; from tissue; host or cells: rat liver mitochondria
T1 sequence (P29117 30-206): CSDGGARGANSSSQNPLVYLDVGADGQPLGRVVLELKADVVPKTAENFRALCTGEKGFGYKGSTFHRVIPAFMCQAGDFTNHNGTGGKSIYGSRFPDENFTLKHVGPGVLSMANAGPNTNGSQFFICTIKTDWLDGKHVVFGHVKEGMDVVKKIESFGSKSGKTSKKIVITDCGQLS
Source text: A mitochondria swelling assay was used to measure the efficacy of NICAMs in blocking CyP-D and mitochondrial permeability transition. Under certain pathological conditions, mitochondria lose the ability to regulate calcium levels, and excessive calcium accumulation in the mitochondrial matrix results in the opening of large pores in the inner mitochondrial membrane. Nonselective conductance of ions and molecules up to 1.5 kilodaltons through the pore, a process called mitochondrial permeability transition, leads to swelling of mitochondria and other events which culminate in cell death. […] In general, mitochondria isolated from rat liver were exposed to calcium to induce MPTP opening in the absence or presence of test compounds, and calcium-induced swelling was measured as a reduction in light absorbance at 540 nm.
Mitochondria were isolated from fresh rat liver. Ice-cold or 4° C. conditions were used throughout all steps of the isolation. The liver was rinsed thoroughly and chopped in a small volume of isolation buffer (IB; 10 mM Hepes, 70 mM sucrose, 210 mM mannitol, 0.5 mM EDTA). Aliquots of the minced liver were homogenized in IB using a Teflon-glass Potter-Elvehjem tissue grinder and passed through a cell screen filter. The filtered homogenate was centrifuged at 600 g for 10 min, then the resulting supernatant centrifuged at 7000 g for 10 min. The supernatant was discarded, and the pellet resuspended in wash buffer (10 mM Hepes, 70 mM sucrose, 210 mM mannitol) and centrifuged a final time at 7000 g for 10 min. The supernatant was discarded, and the mitochondria-containing pellet suspended and stored on ice in 2 mL of respiration buffer (RB; 5 mM Hepes, 70 mM sucrose, 210 mM mannitol, 10 mM sodium succinate, 1 mM sodium phosphate dibasic).
Test compound solutions were prepared from 10 mg/ml stocks (dimethyl sulfoxide vehicle) first by diluting the test compound 1000× into respiration buffer #2 (RB2; 5 mM Hepes, 70 mM sucrose, 210 mM mannitol, 10 mM sodium succinate, 1 mM sodium phosphate dibasic, 1% fetal bovine serum, 2 μM rotenone), then by 3×-serial dilutions in RB2 to achieve test compound concentrations of 10000, 3333, 1111, 370, 123, 41, and 14 ng/mL. Polystyrene tubes and plates were used for all preparations.
Swelling assays were completed in a 96-well flat-bottom polystyrene plates. In each well a 10-μL aliquot of mitochondria suspension, equivalent to 100-200 μg total protein, was combined with 90 μL of test compound, incubated for 10 min, then the baseline absorbance measured on a plate reader (540 nm wavelength; A540). Swelling was induced by adding 5 μL of 4 mM calcium chloride to achieve a final calcium concentration of 190 μM. Mitochondria swelling was indicated by a decline in A540. […] Duplicate samples were assayed for each test compound concentration.
Means and ranges of duplicate samples are shown.

Row | Structure (SMILES) | Immunosuppression (% Relative to CsA) (human lymphocytes) [%] | CYP-D Inhibition (% Potency Vs CsA) (CyP-D) [%]
1 | CCC1NC(=O)C(C(O)C(C)CCCCCCCCO)N(C)C(=O)C(C(C)C)N(C)C(=O)C(CC(C)C)N(C)C(=O)C(CC(C)C)N(C)C(=O)C(C)NC(=O)C(C)NC(=O)C(CC(C)C)N(C)C(=O)C(C(C)C)NC(=O)C(CC(C)C)N(C)C(=O)CN(C)C1=O (stereo not shown) [Compound 420-112] | 2 | 106.7
2 | CCC1NC(=O)C(C(O)C(C)CC=CCCC(=O)N(C)C)N(C)C(=O)C(C(C)C)N(C)C(=O)C(CC(C)C)N(C)C(=O)C(CC(C)C)N(C)C(=O)C(C)NC(=O)C(C)NC(=O)C(CC(C)C)N(C)C(=O)C(C(C)C)NC(=O)C(CC(C)C)N(C)C(=O)CN(C)C1=O (stereo not shown) [Compound 404-157] | <1 | 142.3
3 | CCC1NC(=O)C(C(O)C(C)CC=CCCC#N)N(C)C(=O)C(C(C)C)N(C)C(=O)C(CC(C)C)N(C)C(=O)C(CC(C)C)N(C)C(=O)C(C)NC(=O)C(C)NC(=O)C(CC(C)C)N(C)C(=O)C(C(C)C)NC(=O)C(CC(C)C)N(C)C(=O)CN(C)C1=O (stereo not shown) [Compound 404-194] | 2 | 123.2
4 | C=CCC(O)CCCC(C)C(O)C1C(=O)NC(CC)C(=O)N(C)CC(=O)N(C)C(CC(C)C)C(=O)NC(C(C)C)C(=O)N(C)C(CC(C)C)C(=O)NC(C)C(=O)NC(C)C(=O)N(C)C(CC(C)C)C(=O)N(C)C(CC(C)C)C(=O)N(C)C(C(C)C)C(=O)N1C (stereo not shown) [Compound 420-49-1] | 3 | 143.6
5 | CCCCCCCC=CCC(C)C(O)C1C(=O)NC(CC)C(=O)N(C)CC(=O)N(C)C(CC(C)C)C(=O)NC(C(C)C)C(=O)N(C)C(CC(C)C)C(=O)NC(C)C(=O)NC(C)C(=O)N(C)C(CC(C)C)C(=O)N(C)C(CC(C)C)C(=O)N(C)C(C(C)C)C(=O)N1C (stereo not shown) [Compound 404-44] | 1 | 1.2
6 | CCC1NC(=O)C(C(O)C(C)CC=CCCCCC(=O)N2CCOCC2)N(C)C(=O)C(C(C)C)N(C)C(=O)C(CC(C)C)N(C)C(=O)C(CC(C)C)N(C)C(=O)C(C)NC(=O)C(C)NC(=O)C(CC(C)C)N(C)C(=O)C(C(C)C)NC(=O)C(CC(C)C)N(C)C(=O)CN(C)C1=O (stereo not shown) [Compound 404-162] | <1 | 91.1
7 | CCC1NC(=O)C(C(O)C(C)CC=CCCCCCCC(=O)N(C)C)N(C)C(=O)C(C(C)C)N(C)C(=O)C(CC(C)C)N(C)C(=O)C(CC(C)C)N(C)C(=O)C(C)NC(=O)C(C)NC(=O)C(CC(C)C)N(C)C(=O)C(C(C)C)NC(=O)C(CC(C)C)N(C)C(=O)CN(C)C1=O (stereo not shown) [Compound 420-114] | <1 | 63.4
8 | CCC(O)CCCC(C)C(O)C1C(=O)NC(CC)C(=O)N(C)CC(=O)N(C)C(CC(C)C)C(=O)NC(C(C)C)C(=O)N(C)C(CC(C)C)C(=O)NC(C)C(=O)NC(C)C(=O)N(C)C(CC(C)C)C(=O)N(C)C(CC(C)C)C(=O)N(C)C(C(C)C)C(=O)N1C (stereo not shown) [Compound 404-195] | 2 | 143.1
9 | CCC1NC(=O)C(C(O)C(C)CC=CCCCCCCNC(=O)OC(C)(C)C)N(C)C(=O)C(C(C)C)N(C)C(=O)C(CC(C)C)N(C)C(=O)C(CC(C)C)N(C)C(=O)C(C)NC(=O)C(C)NC(=O)C(CC(C)C)N(C)C(=O)C(C(C)C)NC(=O)C(CC(C)C)N(C)C(=O)CN(C)C1=O (stereo not shown) [Compound 420-120] | 3 | 9.4
10 | CCC1NC(=O)C(C(O)C(C)CCCC(C)O)N(C)C(=O)C(C(C)C)N(C)C(=O)C(CC(C)C)N(C)C(=O)C(CC(C)C)N(C)C(=O)C(C)NC(=O)C(C)NC(=O)C(CC(C)C)N(C)C(=O)C(C(C)C)NC(=O)C(CC(C)C)N(C)C(=O)CN(C)C1=O (stereo not shown) [Compound 404-98] | 3 | 162.7
11 | CCC1NC(=O)C(C(O)C(C)CCCCC(=O)N(CC)CC)N(C)C(=O)C(C(C)C)N(C)C(=O)C(CC(C)C)N(C)C(=O)C(CC(C)C)N(C)C(=O)C(C)NC(=O)C(C)NC(=O)C(CC(C)C)N(C)C(=O)C(C(C)C)NC(=O)C(CC(C)C)N(C)C(=O)CN(C)C1=O (stereo not shown) [Compound 404-85] | 2 | 128.7
12 | CCOC(=O)CCCCCCC=CCC(C)C(O)C1C(=O)NC(CC)C(=O)N(C)CC(=O)N(C)C(CC(C)C)C(=O)NC(C(C)C)C(=O)N(C)C(CC(C)C)C(=O)NC(C)C(=O)NC(C)C(=O)N(C)C(CC(C)C)C(=O)N(C)C(CC(C)C)C(=O)N(C)C(C(C)C)C(=O)N1C (stereo not shown) [Compound 420-113] | <1 | 33.2
13 | CCC1NC(=O)C(C(O)C(C)CCCCC(N)=O)N(C)C(=O)C(C(C)C)N(C)C(=O)C(CC(C)C)N(C)C(=O)C(CC(C)C)N(C)C(=O)C(C)NC(=O)C(C)NC(=O)C(CC(C)C)N(C)C(=O)C(C(C)C)NC(=O)C(CC(C)C)N(C)C(=O)CN(C)C1=O (stereo not shown) [Compound 404-130] | <1 | 114.7
14 | CCC1NC(=O)C(C(O)C(C)CCCO)N(C)C(=O)C(C(C)C)N(C)C(=O)C(CC(C)C)N(C)C(=O)C(CC(C)C)N(C)C(=O)C(C)NC(=O)C(C)NC(=O)C(CC(C)C)N(C)C(=O)C(C(C)C)NC(=O)C(CC(C)C)N(C)C(=O)CN(C)C1=O (stereo not shown) [Compound 420-28] | <1 | 78.0
15 | CCC1NC(=O)C(C(O)C(C)CCCCCCCCCNC(=O)OC(C)(C)C)N(C)C(=O)C(C(C)C)N(C)C(=O)C(CC(C)C)N(C)C(=O)C(CC(C)C)N(C)C(=O)C(C)NC(=O)C(C)NC(=O)C(CC(C)C)N(C)C(=O)C(C(C)C)NC(=O)C(CC(C)C)N(C)C(=O)CN(C)C1=O (stereo not shown) [Compound 420-125] |  | 42.4
16 | CCC1NC(=O)C(C(O)C(C)CC=CCCCCC(N)=O)N(C)C(=O)C(C(C)C)N(C)C(=O)C(CC(C)C)N(C)C(=O)C(CC(C)C)N(C)C(=O)C(C)NC(=O)C(C)NC(=O)C(CC(C)C)N(C)C(=O)C(C(C)C)NC(=O)C(CC(C)C)N(C)C(=O)CN(C)C1=O (stereo not shown) [Compound 404-164] |  | 98.9
17 | CCC1NC(=O)C(C(O)C(C)CC=CCCCC(=O)N(C)C)N(C)C(=O)C(C(C)C)N(C)C(=O)C(CC(C)C)N(C)C(=O)C(CC(C)C)N(C)C(=O)C(C)NC(=O)C(C)NC(=O)C(CC(C)C)N(C)C(=O)C(C(C)C)NC(=O)C(CC(C)C)N(C)C(=O)CN(C)C1=O (stereo not shown) [Compound 404-156] | 1 | 82.2
18 | CCC1NC(=O)C(C(O)C(C)CC=CCCCCC(=O)N(C)C)N(C)C(=O)C(C(C)C)N(C)C(=O)C(CC(C)C)N(C)C(=O)C(CC(C)C)N(C)C(=O)C(C)NC(=O)C(C)NC(=O)C(CC(C)C)N(C)C(=O)C(C(C)C)NC(=O)C(CC(C)C)N(C)C(=O)CN(C)C1=O (stereo not shown) [Compound 404-154] | 2 | 119.4
19 | CCC1NC(=O)C(C(O)C(C)CC(O)CO)N(C)C(=O)C(C(C)C)N(C)C(=O)C(CC(C)C)N(C)C(=O)C(CC(C)C)N(C)C(=O)C(C)NC(=O)C(C)NC(=O)C(CC(C)C)N(C)C(=O)C(C(C)C)NC(=O)C(CC(C)C)N(C)C(=O)CN(C)C1=O (stereo not shown) [Compound 404-126] | <1 | 24.6
20 | CCCC=CCC(C)C(O)C1C(=O)NC(CC)C(=O)N(C)CC(=O)N(C)C(CC(C)C)C(=O)NC(C(C)C)C(=O)N(C)C(CC(C)C)C(=O)NC(C)C(=O)NC(C)C(=O)N(C)C(CC(C)C)C(=O)N(C)C(CC(C)C)C(=O)N(C)C(C(C)C)C(=O)N1C (stereo not shown) [Compound 404-26] |  | 58.4

From patent US20130190223A1, “NONIMMUNOSUPPRESSIVE CYCLOSPORINE ANALOGUE MOLECULES” (ISOTECHNIKA PHARMA INC., priority 2008, published 2013)
